Experiments:
[1] = tested on: MCF7 cells; test: Clonogenic Survival Assay in MCF7 cells; format: cell-based, human; settings: for Fold 2 Gy / Fold 4 Gy: vs DMSO; for % survival @ 0 Gy w/out IR: no IR
Description: Human cancer cell lines, including MCF-7 human breast carcinoma cell line and A549 human lung carcinoma cell line, and HCT116 p53 wild-type and HCT116 p53−/− cell lines were obtained from ATCC. MCF7 and HCT116 cells were cultured in Dulbecco's modified Eagle's medium (DMEM (Gibco #11995-065). MDA-MB-231 human triple negative breast cancer cell line and FADU, human head and neck squamous cell carcinoma line, were obtained from Charles River Laboratories (Morrisville, NC). MDA-MB-231 and A549 cells were cultured in RPMI 1640 medium (Gibco, 11875-093). FADU cells were cultured in Minimum Essential Medium α (MEM α) (Gibco, 12571-063) supplemented with 1 mM Sodium Pyruvate (Gibco, 11360-070), 1×MEM Non-Essential Amino Acids (Gibco, 11140-050). All cell lines were supplemented with 10% fetal bovine serum (FBS) (Corning, 35-010-CV) and 1× Antibiotic-Antimycotic (Gibco #15240-062) and were grown at 37° C. in 5% CO2. All cell lines were authenticated by short tandem repeat profiling and tested negative for mycoplasma.
This assay was performed with Compound 569 as an exemplary Formula (I) compound. Cells were plated in 6-well plates at different densities: 250 cells for no IR control, 5000 cells for 2 Gy of IR and 10000 cells for 4 Gy of IR and cultured overnight. The next day, MCF7 cells were preincubated with compound 569 at 100, 250, 500, or 1000 nM or DMSO for 30 min before being exposed to increasing doses of IR (0, 2, or 4 Gy). The A549 cells were incubated with Compound 569 at 500 or 1000 nM or with DMSO for 30 min before being exposed to increasing doses of IR (0, 2, or 4 Gy). After IR, cells were continuously incubated with DMSO or compound 569 for 5 h before the culture medium was removed and cells were washed with PBS. Cells were cultured in complete medium in the absence of inhibitor for 9 days. Then cells were stained (PBS, […], 0.1% crystal violet) rinsed with water and dried.

[2] = molecular target: DNA-PK (Homo sapiens (Human), UniProt P78527); test: Pharmacodynamic assay, pDNA-PK/DNA-PK in FADU tumors; format: in vivo; settings: for pDNA-PK/DNA-PK: FADU tumors
Description: FADU or MDA-MB-231 cells were harvested during log phase growth for in vivo implantation. The resuspended cells were washed three times in phosphate buffered saline (PBS) before preparing the working dilution in PBS. FADU cells were diluted to 1×10^7 cells/mL and MDA-MB-231 cells were diluted to 5×10^7 cells/mL. Each mouse was injected subcutaneously in the right flank with 100 μL of the cellular suspension. Tumor growth was monitored until the tumors reached a target volume of at least 100 mm^3, at which point mice were randomly stratified into four treatment groups.
Tumor studies were performed as follows. Mice bearing FADU or MDA-231 tumors were pre-dosed with vehicle alone or compound 569 alone at 3, 6, and 10 mg/kg. Tumors were then irradiated with 10 Gy 45 min after vehicle or compound 569 administration or left unirradiated (vehicle and compound 569 at 10 mg/kg). Tumors were harvested 1 h post radiation.
Tissue homogenates for pharmacodynamic analyses were collected and processed as follows. Tumor tissues from FADU or MDA-MB-231 tumors were flash frozen in liquid nitrogen and pulverized on dry ice using a tissue pulverizer. A portion of the tumor powder was transferred into a microtube, followed by addition of 500 μL of RIPA buffer [[…], pH 8.0, 150 mM NaCl, 0.1% SDS, 0.5% sodium deoxycholate, 1% IGEPAL® CA-630 (Sigma, I8896)]. To 10 ml of RIPA buffer, 2 tablets each of Protease inhibitor and Phosphatase inhibitor (Roche, #04693159001 & #04906837001), 200 μL of 0.1 M PMSF and 160 μL of Aprotinin, (Sigma, A6279) were added. The suspension was homogenized on ice with a pellet pestle motor (KONTES) and incubated on ice for 30 minutes. Cell lysates were centrifuged at 13,200 rpm for 15 min at 4° C. and supernatants were transferred to a new tube and analyzed for protein concentration with a BCA kit (Pierce, 23227), followed by immunoblotting.

## CC(C)NCCOc1ncc(-c2cc3c4c(cnc3cc2F)N(C)C(=O)C42CCC2)cc1NS(C)(=O)=O [Compound 569, N-(5-(7′-Fluoro-3′-methyl-2′-oxo-2′,3′-dihydrospiro[cyclobutane-1,1′-pyrrolo[2,3-c]quinolin]-8′-yl)-2-(2-(isopropylamino)ethoxy)pyridin-3-yl)methanesulfonamide]
[1]; 5-h exposure
  cellular toxicity in the absence of IR: without evidence of cellular toxicity
[1]; 5-h exposure, 100-1000 nM, 0, 2, 4 Gy
  radiosensitization: significant degree of radiosensitization
[1]; 569 100 nM
  Clonogenic survival ratio 0 Gy: 1.000
  Clonogenic survival ratio 2 Gy: 0.0882
  Fold 2 Gy: 7.5
  Clonogenic survival ratio 4 Gy: 0.0146
  Fold 4 Gy: 21.8
  % survival @ 0 Gy w/out IR: 92%
[1]; 569 250 nM
  Clonogenic survival ratio 0 Gy: 1.000
  Clonogenic survival ratio 2 Gy: 0.0610
  Fold 2 Gy: 10.8
  Clonogenic survival ratio 4 Gy: 0.00588
  Fold 4 Gy: 54.0
  % survival @ 0 Gy w/out IR: 97%
[1]; 569 500 nM
  Clonogenic survival ratio 0 Gy: 1.000
  Clonogenic survival ratio 2 Gy: 0.0451
  Fold 2 Gy: 14.7
  Clonogenic survival ratio 4 Gy: 0.00347
  Fold 4 Gy: 91.5
  % survival @ 0 Gy w/out IR: 105%
[1]; 569 1000 nM
  Clonogenic survival ratio 0 Gy: 1.000
  Clonogenic survival ratio 2 Gy: 0.0301
  Fold 2 Gy: 22.0
  Clonogenic survival ratio 4 Gy: 0.0016
  Fold 4 Gy: 198
  % survival @ 0 Gy w/out IR: 100%
[2]; 10 mg/kg, 10 Gy, FADU and MDA231 tumors (FIGS. 4 and 5), read-out: inhibition of tumor levels of radiation-induced autophosphorylation of DNA-PK
  inhibition at 10 mg/kg: ~55%
[2]; 10 Gy, 3 mg/kg oral
  pDNA-PK/DNA-PK: 0.938
[2]; 10 Gy, 6 mg/kg oral
  pDNA-PK/DNA-PK: 0.658
[2]; 10 Gy, 10 mg/kg oral
  pDNA-PK/DNA-PK: 0.476
[2]; no radiation, 10 mg/kg oral
  pDNA-PK/DNA-PK: 0.343
[2]; no radiation, 10 mg/kg
  basal phosphorylation of DNA-PK in tumors: inhibited

— patent US20250268873A1, “COMBINATION OF DUAL ATM AND DNA-PK INHIBITORS AND IMMUNOTHERAPEUTIC AGENTS FOR USE IN CANCER THERAPY” (XRAD THERAPEUTICS, INC., priority 2021, published 2025)
